Holding throughout (type): biochemical
In one assay the target is T1, JAK3 (Homo sapiens, UniProt P52333).
T1 sequence (P52333 1-1124): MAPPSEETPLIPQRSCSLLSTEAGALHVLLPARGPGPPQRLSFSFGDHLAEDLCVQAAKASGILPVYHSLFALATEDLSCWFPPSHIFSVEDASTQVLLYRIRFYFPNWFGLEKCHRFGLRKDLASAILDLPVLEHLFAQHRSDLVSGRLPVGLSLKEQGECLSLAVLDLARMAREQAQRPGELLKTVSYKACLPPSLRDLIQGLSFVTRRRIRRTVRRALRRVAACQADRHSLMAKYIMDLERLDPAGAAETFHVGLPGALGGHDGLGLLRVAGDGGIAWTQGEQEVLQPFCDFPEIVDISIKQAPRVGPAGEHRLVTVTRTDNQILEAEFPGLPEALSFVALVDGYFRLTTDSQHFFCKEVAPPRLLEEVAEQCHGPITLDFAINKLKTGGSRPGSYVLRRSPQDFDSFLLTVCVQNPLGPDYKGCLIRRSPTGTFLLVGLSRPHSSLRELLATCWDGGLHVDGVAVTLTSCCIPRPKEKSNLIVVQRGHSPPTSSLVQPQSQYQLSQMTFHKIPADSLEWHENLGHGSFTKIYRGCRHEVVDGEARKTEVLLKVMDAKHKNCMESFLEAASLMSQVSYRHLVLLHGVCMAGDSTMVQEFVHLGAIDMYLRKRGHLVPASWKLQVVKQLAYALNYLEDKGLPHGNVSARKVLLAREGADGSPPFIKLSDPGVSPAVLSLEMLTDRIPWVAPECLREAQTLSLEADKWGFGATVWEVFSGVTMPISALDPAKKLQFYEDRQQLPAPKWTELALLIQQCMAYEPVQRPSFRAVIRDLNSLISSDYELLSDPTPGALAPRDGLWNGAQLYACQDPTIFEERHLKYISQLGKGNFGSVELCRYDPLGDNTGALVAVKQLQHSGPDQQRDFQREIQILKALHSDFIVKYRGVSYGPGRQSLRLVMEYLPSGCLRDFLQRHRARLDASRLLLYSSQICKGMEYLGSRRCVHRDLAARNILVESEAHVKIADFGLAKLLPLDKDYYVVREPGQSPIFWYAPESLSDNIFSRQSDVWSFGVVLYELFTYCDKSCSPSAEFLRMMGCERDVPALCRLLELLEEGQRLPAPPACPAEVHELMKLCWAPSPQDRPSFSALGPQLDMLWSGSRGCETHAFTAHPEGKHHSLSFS
The experiment in a line: JAK3 inhibition assay (standard radioactive enzyme assay). Conditions: average Ki if more than one value determined.

Another assay has as its target JAK2 (Homo sapiens, UniProt O60674). The assay can be described thus: JAK2 inhibition assay (radioactive enzyme assay, as for JAK3). Conditions: average Ki if more than one value determined. Summed up:
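Both kinases: poly(Glu)4Tyr substrate in 100 mM HEPES pH 7.4, 10 mM MgCl2, 1 mM DTT. Run 20 min at 25° C, TCA stop, filter-bound ³³P counted, Ki(app) fitted after background subtraction. JAK3: final [γ-³³P]ATP 5 μM, enzyme added as 2 nM solution. JAK2: final poly(Glu)4Tyr 15 μM, final ATP 12 μM.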

A further assay addresses T2, ROCK I (AA 6-553) (Homo sapiens, UniProt Q13464).
T2 construct: ROCK I (AA 6-553)
The assay can be described thus: ROCK inhibition assay, standard coupled enzyme system ("Enzyme"). Conditions: enzyme-linked assay. The method in brief:
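ROCK I (AA 6-553) at 45 nM and 30 °C with 45 μM ATP and 200 μM peptide, in 100 mM HEPES pH 7.5, 10 mM MgCl2, 25 mM NaCl, 2 mM DTT, 1.5% DMSO. ADP output read by a PK/LDH coupled system: 2.5 mM PEP, 350 μM NADH, 30 μg/ml PK, 10 μg/ml LDH.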

Assay [1] deals with T3, full length Aurora-A (AA 1-403) (Homo sapiens, UniProt O14965).
T3 construct: full length Aurora-A (AA 1-403)
T3 sequence (O14965 1-403): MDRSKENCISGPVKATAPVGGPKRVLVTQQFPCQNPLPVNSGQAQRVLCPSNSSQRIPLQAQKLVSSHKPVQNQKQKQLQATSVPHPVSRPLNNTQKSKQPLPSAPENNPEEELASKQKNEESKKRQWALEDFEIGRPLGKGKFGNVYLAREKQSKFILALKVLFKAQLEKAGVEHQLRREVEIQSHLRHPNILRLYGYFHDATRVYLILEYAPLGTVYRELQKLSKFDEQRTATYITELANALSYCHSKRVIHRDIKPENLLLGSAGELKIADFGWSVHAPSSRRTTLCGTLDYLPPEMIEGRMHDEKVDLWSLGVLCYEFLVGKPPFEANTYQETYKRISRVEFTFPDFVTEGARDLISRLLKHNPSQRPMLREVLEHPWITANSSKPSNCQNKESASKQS
The assay can be described thus: Aurora-A inhibition assay, standard coupled enzyme system. Conditions: average Ki if more than one value determined.

This passage reports Ki results from patent publication US8501446B2 (Vertex Pharmaceuticals Incorporated, priority 2004, dated 2013).

Usually Ki stands for the equilibrium dissociation constant of an inhibitor or competing ligand from its target.

T2 sequence (Q13464 6-553, species assumed): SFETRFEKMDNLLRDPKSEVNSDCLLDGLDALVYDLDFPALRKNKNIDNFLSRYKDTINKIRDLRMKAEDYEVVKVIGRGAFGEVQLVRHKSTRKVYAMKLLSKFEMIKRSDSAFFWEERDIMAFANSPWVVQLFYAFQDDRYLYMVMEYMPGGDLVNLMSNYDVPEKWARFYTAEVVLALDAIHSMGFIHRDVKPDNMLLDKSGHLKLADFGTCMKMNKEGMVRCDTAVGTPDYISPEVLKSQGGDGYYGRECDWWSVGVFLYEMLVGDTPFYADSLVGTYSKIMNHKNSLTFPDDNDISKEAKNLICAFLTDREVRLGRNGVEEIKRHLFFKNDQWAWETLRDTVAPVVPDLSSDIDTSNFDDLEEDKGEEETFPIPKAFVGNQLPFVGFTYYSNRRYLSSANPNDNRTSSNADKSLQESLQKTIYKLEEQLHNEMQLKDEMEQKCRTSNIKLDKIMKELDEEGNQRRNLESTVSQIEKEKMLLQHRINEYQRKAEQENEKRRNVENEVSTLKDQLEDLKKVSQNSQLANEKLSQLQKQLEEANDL
JAK2, sequence (O60674 whole entry, species assumed): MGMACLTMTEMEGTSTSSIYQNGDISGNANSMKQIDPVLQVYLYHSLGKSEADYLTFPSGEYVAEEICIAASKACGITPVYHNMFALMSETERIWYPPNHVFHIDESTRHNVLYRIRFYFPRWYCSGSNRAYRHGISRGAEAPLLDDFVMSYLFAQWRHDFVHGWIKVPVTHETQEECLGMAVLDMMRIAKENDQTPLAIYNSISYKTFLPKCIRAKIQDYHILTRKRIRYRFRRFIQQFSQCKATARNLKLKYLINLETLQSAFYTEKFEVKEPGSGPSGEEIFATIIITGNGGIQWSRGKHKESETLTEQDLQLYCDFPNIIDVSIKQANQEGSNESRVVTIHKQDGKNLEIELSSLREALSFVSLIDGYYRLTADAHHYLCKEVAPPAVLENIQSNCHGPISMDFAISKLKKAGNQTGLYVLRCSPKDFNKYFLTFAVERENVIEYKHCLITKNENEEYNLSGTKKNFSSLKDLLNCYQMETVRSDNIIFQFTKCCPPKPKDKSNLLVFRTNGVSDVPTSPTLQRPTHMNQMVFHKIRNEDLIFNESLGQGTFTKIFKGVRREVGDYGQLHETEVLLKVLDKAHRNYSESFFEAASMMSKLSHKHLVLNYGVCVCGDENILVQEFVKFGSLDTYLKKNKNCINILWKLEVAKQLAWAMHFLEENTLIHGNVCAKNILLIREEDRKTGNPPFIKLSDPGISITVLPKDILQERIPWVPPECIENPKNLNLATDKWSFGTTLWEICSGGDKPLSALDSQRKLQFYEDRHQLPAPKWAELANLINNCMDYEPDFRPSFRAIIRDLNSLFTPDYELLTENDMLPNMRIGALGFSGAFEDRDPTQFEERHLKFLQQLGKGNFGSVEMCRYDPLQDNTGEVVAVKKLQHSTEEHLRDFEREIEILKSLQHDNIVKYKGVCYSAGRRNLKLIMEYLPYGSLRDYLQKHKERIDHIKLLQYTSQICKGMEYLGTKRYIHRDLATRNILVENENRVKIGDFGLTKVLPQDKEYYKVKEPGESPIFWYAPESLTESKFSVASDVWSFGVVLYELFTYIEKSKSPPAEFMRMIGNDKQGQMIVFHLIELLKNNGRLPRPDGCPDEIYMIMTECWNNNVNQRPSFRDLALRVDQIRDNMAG

In the case of `CC(=O)N1[C@H](C)CN(c2cc(C)c(C#N)c(-c3c[nH]c4ncc(Cl)cc34)n2)C[C@@H]1C` [Compound 80], the Ki at JAK3 is under 500 nM; on JAK2, under 500 nM; at ROCK I (AA 6-553), 500 to 5000 nM; in assay [1], under 500 nM.
Consider `CC(=O)N1[C@H](C)CN(c2cccc(-c3c[nH]c4ncc(OCCN5CCOCC5)cc34)n2)C[C@@H]1C` [Compound 95], for which the Ki (on JAK3; at JAK2; at ROCK I (AA 6-553); in assay [1]) was 500 to 5000 nM each time.
On to `CC(=O)N1[C@H](C)CN(c2nc(-c3c[nH]c4ncc(Cl)cc34)c(F)cc2C(N)=O)C[C@@H]1C` [Compound 72], for which the inhibitory constant (Ki) is under 500 nM at JAK3, 500 to 5000 nM on JAK2, 500 to 5000 nM on ROCK I (AA 6-553) and under 500 nM in assay [1].
Take `CC(=O)N1[C@H](C)CN(c2cccc(-c3c[nH]c4ncc(C(=O)NC5CCCCC5)cc34)n2)C[C@@H]1C` [Compound 58]: the Ki on JAK3 is under 500 nM; at JAK2 it was under 500 nM; at ROCK I (AA 6-553), 500 to 5000 nM; in assay [1] it was 500 to 5000 nM.
With `CC(=O)N1CCCN(c2cccc(-c3c[nH]c4ncc(C(=O)NCCCN5CCN(C)CC5)cc34)n2)CC1` [Compound 125], the Ki on JAK3 is under 500 nM; on JAK2, under 500 nM; on ROCK I (AA 6-553), 500 to 5000 nM; in assay [1] it was 500 to 5000 nM.
Regarding `CC(=O)N1[C@H](C)CN(c2cc(C(=O)O)cc(-c3c[nH]c4ncc(Cl)cc34)n2)C[C@@H]1C` [Compound 67], the Ki on JAK3 is under 500 nM; on JAK2 it was under 500 nM; at ROCK I (AA 6-553), 500 to 5000 nM; in assay [1], under 500 nM.
`CC(=O)N1[C@H](C)CN(c2cccc(-c3c[nH]c4ncc(NC(=O)c5cccs5)cc34)n2)C[C@@H]1C` [Compound 182]: the inhibitory constant (Ki) at JAK3 was under 500 nM; on JAK2, under 500 nM; at ROCK I (AA 6-553) it was 500 to 5000 nM; in assay [1], 500 to 5000 nM.
`CC(=O)N1[C@H](C)CN(c2cccc(-c3c[nH]c4ncc(NC(=O)Oc5ccccc5)cc34)n2)C[C@@H]1C` [Compound 69]: the Ki on JAK3 is under 500 nM; at JAK2 it was under 500 nM; at ROCK I (AA 6-553), 500 to 5000 nM; in assay [1], 500 to 5000 nM.
As to `COC(=O)c1ccc(-c2c[nH]c3ncc(Cl)cc23)nc1NCc1ccccc1` [Compound 43], the inhibition constant (Ki) is 500 to 5000 nM on JAK3, 500 to 5000 nM at JAK2, 500 to 5000 nM at ROCK I (AA 6-553) and under 500 nM in assay [1].
Consider `CC(=O)N1[C@H](C)CN(c2cccc(-c3c[nH]c4ncc(NC(=O)c5cccc(C#N)c5)cc34)n2)C[C@@H]1C` [Compound 179], for which the Ki on JAK3 was under 500 nM; at JAK2 it was under 500 nM; at ROCK I (AA 6-553) it was 500 to 5000 nM; in assay [1], 500 to 5000 nM.
For the molecule `CC(C)CNc1cccc(-c2c[nH]c3ncc(Cl)cc23)n1` [Compound 99], the Ki was under 500 nM on JAK3, under 500 nM on JAK2, 500 to 5000 nM at ROCK I (AA 6-553) and under 500 nM in assay [1].
With `CC(=O)N1[C@H](C)CN(c2nc(-c3c[nH]c4ncc(Cl)cc34)ccc2-c2nnn[nH]2)C[C@@H]1C` [Compound 120], the inhibitory constant (Ki) on JAK3 was under 500 nM; at JAK2, under 500 nM; at ROCK I (AA 6-553) it was 500 to 5000 nM; in assay [1] it was under 500 nM.
As for `CC(=O)N1[C@H](C)CN(c2cccc(-c3c[nH]c4ncc(NC(=O)c5cscn5)cc34)n2)C[C@@H]1C` [Compound 162], the Ki is under 500 nM at JAK3, under 500 nM at JAK2, 500 to 5000 nM at ROCK I (AA 6-553) and 500 to 5000 nM in assay [1].
On to `CC(=O)N1[C@H](C)CN(c2cccc(-c3c[nH]c4ncc(C(=O)N5CCCCC5)cc34)n2)C[C@@H]1C` [Compound 54], for which the inhibition constant (Ki) on JAK3 was 500 to 5000 nM; at JAK2, 500 to 5000 nM; at ROCK I (AA 6-553) it was 500 to 5000 nM; in assay [1], under 500 nM.
Turning to `CC(=O)N1[C@H](C)CN(c2cccc(-c3c[nH]c4ncc(NC(=O)/C=C/Cl)cc34)n2)C[C@@H]1C` [Compound 192], the Ki on JAK3 was under 500 nM; on JAK2, under 500 nM; at ROCK I (AA 6-553) it was under 500 nM; in assay [1], 500 to 5000 nM.
Turning to `O[C@H]1CCCC[C@@H]1Nc1cccc(-c2c[nH]c3ncc(Cl)cc23)n1` [Compound 132], the Ki is under 500 nM on JAK3, under 500 nM on JAK2, 500 to 5000 nM at ROCK I (AA 6-553) and under 500 nM in assay [1].
As for `CCC(=O)Nc1cnc2[nH]cc(-c3cccc(N4C[C@@H](C)N(C(C)=O)[C@@H](C)C4)n3)c2c1` [Compound 114], the Ki at JAK3 is under 500 nM; at JAK2 it was under 500 nM; on ROCK I (AA 6-553) it was 500 to 5000 nM; in assay [1], 500 to 5000 nM.
With `CC(=O)N1[C@H](C)CN(c2cc(C(N)=O)cc(-c3c[nH]c4ncc(Cl)cc34)n2)C[C@@H]1C` [Compound 97], the inhibitory constant (Ki) at JAK3 is under 500 nM; on JAK2 it was under 500 nM; on ROCK I (AA 6-553) it was 500 to 5000 nM; in assay [1] it was under 500 nM.
For `CC(=O)N1[C@H](C)CN(c2cccc(-c3c[nH]c4ncc(C(=O)N5CCN(C)CC5)cc34)n2)C[C@@H]1C` [Compound 57], the inhibition constant Ki was 500 to 5000 nM on JAK3, over 5000 nM at JAK2, 500 to 5000 nM at ROCK I (AA 6-553) and 500 to 5000 nM in assay [1].
As for `CC(=O)N1[C@H](C)CN(c2cccc(-c3c[nH]c4ncc(NC(=O)C5CC5)cc34)n2)C[C@@H]1C` [Compound 165], the inhibition constant (Ki) at JAK3 is under 500 nM; on JAK2, under 500 nM; on ROCK I (AA 6-553), 500 to 5000 nM; in assay [1], 500 to 5000 nM.
As to `NC(=O)c1ccc(-c2c[nH]c3ncc(Cl)cc23)nc1NCc1ccccc1` [Compound 46], the inhibition constant (Ki) on JAK3 was under 500 nM; on JAK2, under 500 nM; at ROCK I (AA 6-553), 500 to 5000 nM; in assay [1], under 500 nM.
Turning to `N#Cc1cc(-c2c[nH]c3ncc(Cl)cc23)nc(N2CCCNCC2)c1` [Compound 151], the Ki (on JAK3; at JAK2; at ROCK I (AA 6-553); in assay [1]) was under 500 nM in each case.
Take `Clc1cnc2[nH]cc(-c3cccc(CNc4ccccc4)c3)c2c1` [Compound 186]: the Ki (on JAK3; on JAK2; in assay [1]) was under 500 nM each time.
`CC(=O)N1[C@H](C)CN(c2cccc(-c3c[nH]c4ncc(NC(=O)c5ccno5)cc34)n2)C[C@@H]1C` [Compound 167]: the inhibitory constant (Ki) on JAK3 was under 500 nM; on JAK2, under 500 nM; on ROCK I (AA 6-553), 500 to 5000 nM; in assay [1] it was 500 to 5000 nM.
As to `CC(=O)N1[C@H](C)CN(c2nc(-c3c[nH]c4ncc(Cl)cc34)ccc2N)C[C@@H]1C` [Compound 76], the Ki at JAK3 is under 500 nM; at JAK2, under 500 nM; at ROCK I (AA 6-553), 500 to 5000 nM; in assay [1], under 500 nM.
With `CC(=O)N1[C@H](C)CN(c2cccc(-c3c[nH]c4ncc(C(=O)N5CCNCC5)cc34)n2)C[C@@H]1C` [Compound 56], the inhibition constant (Ki) at JAK3 was 500 to 5000 nM; at JAK2, over 5000 nM; in assay [1] it was 500 to 5000 nM.
